These results are taken from paper PMC9787943, “Calcium-Dependent Interplay of Lithium and Tricyclic Antidepressants, Amitriptyline and Desipramine, on N-methyl-D-aspartate Receptors” (International Journal of Molecular Sciences, 2022).

The experiment relates to T1, native di- and triheteromeric NMDARs composed of GluN1, GluN2A, and GluN2B subunits.
T1 construct: gene Grin1; native receptors in primary cultured cortical neurons (from fetal brains of 17-day pregnant rats, 10-14 days in culture); mixture of di- and triheteromers, heterotetramers with two GluN1 (known biology)
Nature of the experiment: whole-cell patch clamp of cultured neurons, NMDA-elicited currents. In kind it is cell-based, Rattus norvegicus. The settings on record: Na+ solution without Li+, 100 μM NMDA + 30 μM glycine, -70 mV, pH 7.2-7.4, 22-25 °C, no BAPTA, mode: Ca2+-dependent desensitization (paper suggests indirect, via NCX) plus open-channel bloc. An excerpt:
whole-cell patch clamp of cultured neurons, NMDA-elicited currents on native di- and triheteromeric NMDARs composed of GluN1, GluN2A, and GluN2B subunits

Read-outs that look alike come from different tables or passages of the source.

As for `CNCCCN1c2ccccc2CCc2ccccc21` [Desipramine], where the note is “1 mM Ca2+, read-out: IC50 DES”, the IC50 is 1.75 ± 0.17 µM. For `CN(C)CCC=C1c2ccccc2CCc2ccccc21` [Amitriptyline], where the note is “2 mM Ca2+, read-out: IC50 ATL”, the IC50 turned out to be 5 ± 1 µM.

In general, IC50 refers to the point on the concentration scale where inhibition reaches its midpoint.
